This is an account of results in patent US7795255B2, “Rigidified compounds for modulating heparanase activity” (InSight Biopharmaceuticals Ltd., priority 2005, dated 2010).

Each structure is given as a SMILES string.

The target in assay [1] is T1, recombinant human pro-heparanase (H60) (Homo sapiens, UniProt Q9Y251).
T1 construct: Heparanase maturation involves the removal of the signal peptide, transforming the 65 kDa pre-pro-heparanase into a 60 kDa pro-heparanase; made in house
T1 sequence (Q9Y251 36-543): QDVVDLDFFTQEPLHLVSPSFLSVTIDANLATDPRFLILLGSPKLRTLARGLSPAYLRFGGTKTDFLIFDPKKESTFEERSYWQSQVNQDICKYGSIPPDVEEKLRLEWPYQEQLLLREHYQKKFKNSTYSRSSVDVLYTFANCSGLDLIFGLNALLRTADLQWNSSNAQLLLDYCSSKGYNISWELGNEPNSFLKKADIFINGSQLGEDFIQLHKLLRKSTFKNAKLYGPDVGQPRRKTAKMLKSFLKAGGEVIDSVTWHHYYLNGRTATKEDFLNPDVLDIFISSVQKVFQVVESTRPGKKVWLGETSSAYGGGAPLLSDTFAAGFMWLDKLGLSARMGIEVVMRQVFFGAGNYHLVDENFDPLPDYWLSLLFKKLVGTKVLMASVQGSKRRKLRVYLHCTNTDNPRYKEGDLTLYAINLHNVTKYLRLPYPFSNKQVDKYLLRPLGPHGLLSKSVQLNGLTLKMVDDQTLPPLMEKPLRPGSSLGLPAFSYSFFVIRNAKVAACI
The experiment in a line: Pro-heparanase (H60) activation in a cell-based assay. Conditions: inhibition of pro-heparanase activation in CHO cells; NI = no inhibition.

A further assay has as its target T2, heparanase (H53) (Homo sapiens, UniProt Q9Y251).
T2 construct: The 45 kDa major subunit and the 8 kDa small subunit hetero-complex to form the 53 kDa active form of heparanase
T2 sequence (Q9Y251 36-109 limits assumed): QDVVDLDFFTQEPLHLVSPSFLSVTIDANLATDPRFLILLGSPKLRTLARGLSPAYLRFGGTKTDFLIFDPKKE
T2 sequence (Q9Y251 158-543 limits assumed): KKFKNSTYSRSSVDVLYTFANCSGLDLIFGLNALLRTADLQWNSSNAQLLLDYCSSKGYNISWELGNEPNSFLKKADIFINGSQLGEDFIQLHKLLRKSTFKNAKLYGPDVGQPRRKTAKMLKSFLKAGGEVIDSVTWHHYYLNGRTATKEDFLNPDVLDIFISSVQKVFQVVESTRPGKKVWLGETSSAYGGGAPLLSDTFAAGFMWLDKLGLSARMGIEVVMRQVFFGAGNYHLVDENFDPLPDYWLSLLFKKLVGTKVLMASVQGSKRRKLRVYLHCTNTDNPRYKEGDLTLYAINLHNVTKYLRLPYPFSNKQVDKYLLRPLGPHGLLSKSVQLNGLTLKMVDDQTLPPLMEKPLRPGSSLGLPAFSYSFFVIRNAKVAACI
The experiment in a line: Heparanase (H53) assay (DMB assay). The class given is biochemical. As to the method:
Heparanase (H53) assay: The rigidified compounds described herein were tested for inhibition of heparanase activity in the DMB assay described in U.S. Pat. No. 6,190,875. IC50 was calculated from inhibition curves of all active compounds.

Assay [2] deals with T3, vascular endothelial growth factor (VEGF) (Homo sapiens, UniProt P15692).
T3 sequence (P15692 27-191 isoform P15692-4): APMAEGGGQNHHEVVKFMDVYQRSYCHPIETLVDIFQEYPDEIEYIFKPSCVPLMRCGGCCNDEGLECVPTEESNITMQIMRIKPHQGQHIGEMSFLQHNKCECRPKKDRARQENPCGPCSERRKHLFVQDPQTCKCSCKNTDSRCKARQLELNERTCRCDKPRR
Put plainly: ELISA for determination of binding of VEGF to heparin. Conditions: inhibition of VEGF binding to heparin; NI = no inhibition. In a few lines: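 Binding of 10 ng/ml VEGF to plates coated with 5 μg/ml heparin-albumin (45 min, 23-25° C), detected with anti-VEGF antibody (0.26 μg/ml) plus HRP secondary and TMB, read at 450/630 nm. Percent inhibition versus a 1% DMSO pre-incubated control.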
For orientation: An ELISA detects its analyte on a solid surface through an enzyme-linked reagent.

The target of another assay is β-FGF (Homo sapiens, UniProt P09038). Put plainly: ELISA for determination of binding of β-FGF to heparin. Conditions: inhibition of β-FGF binding to heparin; NI = no inhibition. In a few lines: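 Plates coated 2 h at 23-25° C with 5 μg/ml heparin-albumin, blocked with 1% BSA/PBS/0.05% Tween; 10 ng/ml β-FGF bound 45 min at 23-25° C. Bound β-FGF detected with anti-FGF mAb (2.5 ng/ml) plus HRP anti-mouse IgG and TMB; absorbance at 450 nm, 630 nm reference.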

In assay [3] the test system is MDA-MB231 breast cancer cells. The experiment in a line: In-vitro assay for inhibition of cell invasion (MDA-MB231). To be noted: Homo sapiens; MB231 cells (first value of cell); read-out: IC50 Invasion MB231/PC3/A375. The class given is cell-based. As to the method: (§1) In-vitro assay for inhibition of cell invasion: The ability of the rigidified compounds described herein to inhibit cell invasion was determined quantitatively using BD Biocoat FluoroBlok Invasion System (BD, cat No. FAL354165). MDA-MB231 breast cancer cells, human prostatic cancer PC3 cells and A375 melanoma cells were used for this assay. Cells (5×10^4 cells/ml) were pre-incubated with the compounds for 48 hours prior to the assay, at 37° C. and a 5% CO2 atmosphere.
(§2) Serial dilutions of each compound starting from a concentration which was previously found to be non-toxic to the cells (using Oxygen Biosensor System, BD), were prepared in DMSO and added to the cells to a final concentration of 1% DMSO. At the end of the pre-incubation, cells at each compound concentration were counted and 2×10^4 cells/well in basic medium were applied onto the top chamber of the insert of the Invasion system. 750 μl complete medium with 5% fetal calf serum was added to the bottom chambers. The tested compound was applied to the top and bottom chambers. Invasion plates were incubated for 22 hours at 37° C. and a 5% CO2 atmosphere.
At the end of the incubation, medium was aspirated from the upper chambers and the inserts were transferred to a plate containing Calcein AM (Molecular Probes), 4 μg/ml and incubated for 90 minutes at 37° C. and a 5% CO2 atmosphere.
(§3) Fluorescence of invaded cells was read in a fluorescence plate reader BMG POLARstar Galaxy, BMG at excitation/emission wavelength of 485/530 nm.

Assay [4] deals with human prostatic cancer PC3 cells. The experiment in a line: In-vitro assay for inhibition of cell invasion (PC3). To be noted: PC-3, PC3 cells (second value of cell), read-out: IC50 Invasion MB231/PC3/A375. It is filed as cell-based. As to the method: as §1
as §2, with “atmosphere. […]” for “atmosphere.”
as §3

In a further assay the test system is A375 melanoma cells. Put plainly: In-vitro assay for inhibition of cell invasion (A375). The class given is cell-based. To be noted: Homo sapiens, A-375; A375 cells (third value of cell); read-out: IC50 Invasion MB231/PC3/A375. As to the method:
as §1
as §2, with “atmosphere. […]” for “atmosphere.”
as §3

β-FGF, sequence (P09038 143-288): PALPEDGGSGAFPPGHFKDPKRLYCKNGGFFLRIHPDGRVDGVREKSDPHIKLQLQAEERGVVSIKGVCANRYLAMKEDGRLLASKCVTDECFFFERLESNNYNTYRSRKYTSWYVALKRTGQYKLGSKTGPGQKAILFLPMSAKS

`CC(C)(CC(=O)N1CCC[C@H]1C(=O)O)CN1C(=O)c2cc3oc(-c4ccc(Cl)cc4)cc3n2C1=S` [Compound 22, 1-{4-[2-(4-Chloro-phenyl)-6-oxo-4-thioxo-6H-1-oxa-3b,5-diaza-cyclopenta[a]pentalen-5-yl]-3,3-dimethyl-butyryl}-pyrrolidine-2-carboxylic acid]: the IC50 was found to be 230 nM in assay [1]; 34.8 µM on heparanase (H53) (inhibition of heparanase activity, DMB assay, NI = no inhibition); 2400 nM in assay [2]; 2800 nM at β-FGF; 22 nM in assay [3]; 50 nM in assay [4]. Further, the IC50 in the assay with A375 melanoma cells amounted to 2000 nM. Besides, the “dual activity: inhibition of pro-heparanase activation (H60) and of heparanase activity (H53)” value on heparanase (H53) (compounds with an acidic group) is on record as “dual activity”.
